Laboratory results reported in PubChem BioAssay AID1159564 (GlaxoSmithKline (GSK), 2015).
Calls of active or inactive are those of the source. The rule behind the calls is not given here.

Test system: L. donovani-infected THP-1 macrophages, intracellular amastigote imaging
Experiment: antileishmanial activity in infected THP-1 macrophages – imaging, THP-1 host macrophages, host toxicity (AID 1159564)
[1] = measured here: THP-1 host cell toxicity
[2] = measured here: amastigotes per macrophage

| SMILES | IC50 | IC50 [1] [µM] | IC50 [2] [µM] |
| --- | --- | --- | --- |
| CCN(Cc1ccncc1)Cc1ccc(NC(=O)c2cc(-c3ccc(F)cc3)n[nH]2)cc1 | > 50 µM (inactive) | 5 | 2.5 |
| O=c1[nH]c(C=Cc2cccc(OCCOc3ccccc3)c2)nc(O)c1[N+](=O)[O-] | > 50 µM (inactive) | > 50 | > 50 |
| O=C(NCC(c1cccs1)N1CCOCC1)c1ccc([N+](=O)[O-])o1 (stereo unspecified) | 25 µM | 25 | 16 |
| NS(=O)(=O)c1ccc(Nc2nccc(-c3cnn4ncccc34)n2)cc1 | 2 µM | 0.25 | 1 |
| CS(=O)(=O)c1ccc(CC(=O)Nc2nc(-c3ccc(Cl)s3)cs2)cc1 | > 50 µM (inactive) | 16 | > 50 |
| CC(C)(C)CC(=O)NCCc1csc(-c2ccc(F)cc2)n1 | 32 µM | 16 | 16 |
| CC(=O)Nc1ccc(Nc2nccc(-c3cnn4ncccc34)n2)cc1C(F)(F)F | 0.025 µM | 0.01 | 0.016 |
| O=C(Nc1nc2ccccc2[nH]1)c1ccc2nc[nH]c2c1 | 5 µM | > 50 | 3.2 |
| CNc1nc(C)nc(N2CCc3cc(C(=O)NCc4ccc(-c5nccn5C)cc4Cl)ccc32)n1 | 0.79 µM | 25 | 0.79 |
| COc1ccc(-c2ccc3nnc(-c4ccc(O)c(OC)c4)n3c2)cn1 | > 50 µM (inactive) | > 50 | > 50 |
| O=C(c1cccc(Nc2ncc(-c3ccc4c(c3)OCO4)cn2)c1)N1CCSC1 | 2 µM | 13 | 1 |
| Cc1cc2ncn(-c3ccc([N+](=O)[O-])cc3C#N)c2cc1C | > 50 µM (inactive) | > 50 | > 50 |
